Converted amounts (≈) assume the structure as drawn. The source made the active and inactive calls. No cut-off for these calls is given here.
How the values were obtained:
[1] = system: Mycoplasmoides pneumoniae; test: Antimicrobial activity against Mycoplasma pneumoniae by broth microdilution method; assay type: functional
Ureaplasma parvum [2] = test: Antimicrobial activity against Ureaplasma parvum by broth microdilution method; assay type: functional
Ureaplasma urealyticum = test: Antimicrobial activity against Ureaplasma urealyticum by broth microdilution method; assay type: functional
Metamycoplasma hominis = test: Antimicrobial activity against Mycoplasma hominis by broth microdilution method; assay type: functional
Mycoplasma fermentans = test: Antimicrobial activity against Mycoplasma fermentans by broth microdilution method; assay type: functional; details: Mycoplasmopsis fermentans
[3] = system: Mycoplasmoides pneumoniae; test: Bactericidal activity against Mycoplasma pneumoniae assessed as log reduction in bacterial load at MIC after 72 hrs; assay type: functional
[4] = system: Mycoplasmoides pneumoniae; test: Bactericidal activity against Mycoplasma pneumoniae assessed as log reduction in bacterial load at MIC after 24 hrs; assay type: functional
Ureaplasma parvum [5] = test: Antimicrobial activity against fluoroquinolone-resistant Ureaplasma parvum by broth microdilution method; assay type: functional
Mycoplasma genitalium = test: Antimicrobial activity against Mycoplasma genitalium by broth microdilution method; assay type: functional; details: Mycoplasmoides genitalium
[6] = system: Mycoplasmoides pneumoniae; test: Bactericidal activity against Mycoplasma pneumoniae at 8 X MIC after 120 hrs; assay type: functional, organism-based
[7] = system: Mycoplasmoides pneumoniae; test: Bactericidal activity against Mycoplasma pneumoniae at MIC after 48 hrs; assay type: functional, organism-based

Structure (SMILES): COc1c(N2CC3(CC3)[C@](C)(N)C2)c(F)cc2c(=O)c(C(=O)O)cn([C@@H]3C[C@@H]3F)c12
- MIC50 [1]: 0.063 µg/mL (≈ 0.15 µM)
- MIC90 [1]: 0.063 µg/mL (≈ 0.15 µM)
- MIC50 (Ureaplasma parvum [2]): 0.5 µg/mL (≈ 1.19 µM)
- MIC90 (Ureaplasma parvum [2]): 2 µg/mL (≈ 4.77 µM)
- MIC50 (Ureaplasma urealyticum): 0.5 µg/mL (≈ 1.19 µM)
- MIC90 (Ureaplasma urealyticum): 1 µg/mL (≈ 2.38 µM)
- MIC50 (Metamycoplasma hominis): 0.125 µg/mL (≈ 0.298 µM)
- MIC90 (Metamycoplasma hominis): 0.25 µg/mL (≈ 0.596 µM)
- MIC50 (Mycoplasma fermentans): 0.016 µg/mL (≈ 0.0381 µM)
- MIC90 (Mycoplasma fermentans): 0.032 µg/mL (≈ 0.0763 µM)
- FC [3]: 3
- FC [4]: 3
- MIC (Ureaplasma parvum [5]): 4 µg/mL (≈ 9.54 µM)
- MIC (Mycoplasma genitalium): 0.016 µg/mL (≈ 0.0381 µM)

Structure (SMILES): CC[C@H]1OC(=O)[C@H](C)[C@@H](O[C@H]2C[C@@](C)(OC)[C@@H](O)[C@H](C)O2)[C@H](C)[C@@H](O[C@@H]2O[C@H](C)C[C@H](N(C)C)[C@H]2O)[C@](C)(O)C[C@@H](C)CN(C)[C@H](C)[C@@H](O)[C@]1(C)O [AZITHROMYCIN]
- MIC [1]: ≤ 0.001 µg/mL
- MIC50 [1]: ≤ 0.001 µg/mL
- MIC90 [1]: ≤ 0.001 µg/mL
- MIC50 (Ureaplasma parvum [2]): 1 µg/mL (≈ 1.34 µM)
- MIC90 (Ureaplasma parvum [2]): 2 µg/mL (≈ 2.67 µM)
- MIC50 (Ureaplasma urealyticum): 2 µg/mL (≈ 2.67 µM)
- MIC90 (Ureaplasma urealyticum): 4 µg/mL (≈ 5.34 µM)
- MIC (Mycoplasma genitalium): ≤ 0.001 µg/mL

Structure (SMILES): O=C(O)c1cn(C2CC2)c2cc(N3CCNCC3)c(F)cc2c1=O [CIPROFLOXACIN]
- MIC50 [1]: 2 µg/mL (≈ 6.04 µM)
- MIC90 [1]: 4 µg/mL (≈ 12.1 µM)
- MIC50 (Ureaplasma parvum [2]): 2 µg/mL (≈ 6.04 µM)
- MIC90 (Ureaplasma parvum [2]): 16 µg/mL (≈ 48.3 µM)
- MIC50 (Ureaplasma urealyticum): 4 µg/mL (≈ 12.1 µM)
- MIC90 (Ureaplasma urealyticum): 8 µg/mL (≈ 24.1 µM)
- MIC50 (Metamycoplasma hominis): 0.5 µg/mL (≈ 1.51 µM)
- MIC90 (Metamycoplasma hominis): 1 µg/mL (≈ 3.02 µM)
- MIC50 (Mycoplasma fermentans): 0.063 µg/mL (≈ 0.19 µM)
- MIC90 (Mycoplasma fermentans): 0.125 µg/mL (≈ 0.377 µM)
- MIC (Ureaplasma parvum [5]): 32 µg/mL (≈ 96.6 µM)
- MIC (Mycoplasma genitalium): 0.5 µg/mL (≈ 1.51 µM)

Structure (SMILES): C[C@H]1c2cccc(O)c2C(=O)C2=C(O)[C@]3(O)C(=O)C(C(N)=O)=C(O)[C@@H](N(C)C)[C@@H]3[C@@H](O)[C@@H]21.O [DOXYCYCLINE]
- MIC50 [1]: 0.25 µg/mL
- MIC90 [1]: 0.5 µg/mL
- MIC50 (Ureaplasma parvum [2]): 0.125 µg/mL
- MIC90 (Ureaplasma parvum [2]): 2 µg/mL
- MIC50 (Ureaplasma urealyticum): 0.125 µg/mL
- MIC90 (Ureaplasma urealyticum): 0.5 µg/mL
- MIC50 (Metamycoplasma hominis): 2 µg/mL
- MIC90 (Metamycoplasma hominis): 8 µg/mL
- MIC50 (Mycoplasma fermentans): 0.25 µg/mL
- MIC90 (Mycoplasma fermentans): 1 µg/mL
- MIC (Mycoplasma genitalium): 0.032 µg/mL

Structure (SMILES): CC[C@H]1OC(=O)[C@H](C)[C@@H](O[C@H]2C[C@@](C)(OC)[C@@H](O)[C@H](C)O2)[C@H](C)[C@@H](O[C@@H]2O[C@H](C)C[C@H](N(C)C)[C@H]2O)[C@](C)(O)C[C@@H](C)C(=O)[C@H](C)[C@@H](O)[C@]1(C)O [ERYTHROMYCIN]
- MIC50 [1]: 0.004 µg/mL (≈ 0.00545 µM)
- MIC90 [1]: 0.004 µg/mL (≈ 0.00545 µM)
- MIC50 (Ureaplasma parvum [2]): 1 µg/mL (≈ 1.36 µM)
- MIC90 (Ureaplasma parvum [2]): 4 µg/mL (≈ 5.45 µM)
- MIC50 (Ureaplasma urealyticum): 2 µg/mL (≈ 2.73 µM)
- MIC90 (Ureaplasma urealyticum): 4 µg/mL (≈ 5.45 µM)
- MIC50 (Metamycoplasma hominis): 0.016 µg/mL (≈ 0.0218 µM)
- MIC90 (Metamycoplasma hominis): 0.032 µg/mL (≈ 0.0436 µM)
- MIC50 (Mycoplasma fermentans): 0.032 µg/mL (≈ 0.0436 µM)
- MIC90 (Mycoplasma fermentans): 0.125 µg/mL (≈ 0.17 µM)
- MIC (Mycoplasma genitalium): ≤ 0.001 µg/mL
- Activity [6]: Active

Structure (SMILES): C[C@H]1COc2c(N3CCN(C)CC3)c(F)cc3c(=O)c(C(=O)O)cn1c23.C[C@H]1COc2c(N3CCN(C)CC3)c(F)cc3c(=O)c(C(=O)O)cn1c23.O [LEVOFLOXACIN]
- MIC50 [1]: 0.5 µg/mL
- MIC90 [1]: 1 µg/mL
- MIC (Ureaplasma parvum [2]): 0.5 µg/mL
- MIC50 (Ureaplasma parvum [2]): 0.5 µg/mL
- MIC90 (Ureaplasma parvum [2]): 2 µg/mL
- MIC50 (Ureaplasma urealyticum): 1 µg/mL
- MIC90 (Ureaplasma urealyticum): 1 µg/mL
- MIC50 (Metamycoplasma hominis): 0.25 µg/mL
- MIC90 (Metamycoplasma hominis): 0.5 µg/mL
- MIC50 (Mycoplasma fermentans): 0.063 µg/mL
- MIC90 (Mycoplasma fermentans): 0.125 µg/mL
- MIC (Ureaplasma parvum [5]): 16 µg/mL
- MIC (Mycoplasma genitalium): 1 µg/mL

Structure (SMILES): COc1c(N2C[C@@H]3CCCN[C@@H]3C2)c(F)cc2c(=O)c(C(=O)O)cn(C3CC3)c12 [MOXIFLOXACIN]
- Activity [7]: Active
- MIC50 [1]: 0.125 µg/mL (≈ 0.311 µM)
- MIC90 [1]: 0.125 µg/mL (≈ 0.311 µM)
- MIC50 (Ureaplasma parvum [2]): 0.5 µg/mL (≈ 1.25 µM)
- MIC90 (Ureaplasma parvum [2]): 2 µg/mL (≈ 4.98 µM)
- MIC (Ureaplasma urealyticum): 0.25 µg/mL (≈ 0.623 µM)
- MIC50 (Ureaplasma urealyticum): 0.25 µg/mL (≈ 0.623 µM)
- MIC90 (Ureaplasma urealyticum): 0.5 µg/mL (≈ 1.25 µM)
- MIC50 (Metamycoplasma hominis): 0.063 µg/mL (≈ 0.157 µM)
- MIC90 (Metamycoplasma hominis): 0.063 µg/mL (≈ 0.157 µM)
- MIC50 (Mycoplasma fermentans): 0.032 µg/mL (≈ 0.0797 µM)
- MIC90 (Mycoplasma fermentans): 0.063 µg/mL (≈ 0.157 µM)
- MIC (Ureaplasma parvum [5]): 4 µg/mL (≈ 9.96 µM)
- MIC (Mycoplasma genitalium): 0.016 µg/mL (≈ 0.0399 µM)

Structure (SMILES): CN(C)[C@@H]1C(O)=C(C(N)=O)C(=O)[C@@]2(O)C(O)=C3C(=O)c4c(O)cccc4[C@@](C)(O)[C@H]3C[C@@H]12 [TETRACYCLINE]
- MIC50 [1]: 0.5 µg/mL (≈ 1.13 µM)
- MIC90 [1]: 1 µg/mL (≈ 2.25 µM)
- MIC50 (Ureaplasma parvum [2]): 0.5 µg/mL (≈ 1.13 µM)
- MIC90 (Ureaplasma parvum [2]): 8 µg/mL (≈ 18 µM)
- MIC50 (Ureaplasma urealyticum): 0.5 µg/mL (≈ 1.13 µM)
- MIC90 (Ureaplasma urealyticum): 2 µg/mL (≈ 4.5 µM)
- MIC50 (Metamycoplasma hominis): 0.5 µg/mL (≈ 1.13 µM)
- MIC90 (Metamycoplasma hominis): 16 µg/mL (≈ 36 µM)
- MIC50 (Mycoplasma fermentans): 0.5 µg/mL (≈ 1.13 µM)
- MIC90 (Mycoplasma fermentans): 1 µg/mL (≈ 2.25 µM)
- MIC (Mycoplasma genitalium): 0.25 µg/mL (≈ 0.563 µM)

Reference: ChEMBL document CHEMBL1275512, “Comparative in vitro activities of the investigational fluoroquinolone DC-159a and other antimicrobial agents against human mycoplasmas and ureaplasmas” (2008)
